{"source": "ChEMBL document CHEMBL1129176", "about": "“Enantio-dependence of inducer-specific bidirectional regulation of tumor necrosis factor (TNF)-alpha production: Potent TNF- production inhibitors” (1996)", "data": [{"tested_on": "HL-60", "experiment": "Compound was evaluated for the amount of TNF-alpha produced by HL-60 cells in the presence of 12-O-tetradecanoylphorbol-13-acetate (TPA) at concentration 0.3 uM", "format": "functional, Homo sapiens", "units": {"Production": "%"}, "values": [{"compound": "C[C@H](C1CCCCC1)N1C(=O)c2c(F)c(F)c(F)c(F)c2C1=O", "Production": 98}, {"compound": "C[C@@H](C1CCCCC1)N1C(=O)c2c(F)c(F)c(F)c(F)c2C1=O", "Production": 124}, {"compound": "C[C@@H](c1cccc2ccccc12)N1C(=O)c2c(F)c(F)c(F)c(F)c2C1=O", "Production": 101}, {"compound": "C[C@@H](c1ccccc1)N1C(=O)c2c(F)c(F)c(F)c(F)c2C1=O", "Production": 143}, {"compound": "C[C@H](c1cccc2ccccc12)N1C(=O)c2c(F)c(F)c(F)c(F)c2C1=O", "Production": 100}, {"compound": "C[C@H](c1ccccc1)N1C(=O)c2c(F)c(F)c(F)c(F)c2C1=O", "Production": 97}]}, {"tested_on": "HL-60", "experiment": "Compound was evaluated for the amount of TNF-alpha produced by HL-60 cells in the presence of 12-O-tetradecanoylphorbol-13-acetate (TPA) at concentration 30 uM", "format": "functional, Homo sapiens", "units": {"Production": "%"}, "values": [{"compound": "C[C@@]1(N2C(=O)c3ccccc3C2=O)CCC(=O)NC1=O", "Production": 103}, {"compound": "C[C@]1(N2C(=O)c3ccccc3C2=O)CCC(=O)NC1=O", "Production": 358}, {"compound": "O=C1CCC(N2C(=O)c3ccccc3C2=O)C(=O)N1", "note": "(stereo not drawn) [THALIDOMIDE]", "Production": 135}]}, {"tested_on": "HL-60", "experiment": "Compound was evaluated for the amount of TNF-alpha produced by HL-60 cells in the presence of Okadaic acid (OA) at concentration 0.3 uM", "format": "functional, Homo sapiens", "units": {"Production": "%"}, "values": [{"compound": "C[C@H](C1CCCCC1)N1C(=O)c2c(F)c(F)c(F)c(F)c2C1=O", "Production": 10}, {"compound": "C[C@@H](C1CCCCC1)N1C(=O)c2c(F)c(F)c(F)c(F)c2C1=O", "Production": 65}, {"compound": "C[C@@H](c1cccc2ccccc12)N1C(=O)c2c(F)c(F)c(F)c(F)c2C1=O", "Production": 101}, {"compound": "C[C@@H](c1ccccc1)N1C(=O)c2c(F)c(F)c(F)c(F)c2C1=O", "Production": 70}, {"compound": "C[C@H](c1cccc2ccccc12)N1C(=O)c2c(F)c(F)c(F)c(F)c2C1=O", "Production": 2}, {"compound": "C[C@H](c1ccccc1)N1C(=O)c2c(F)c(F)c(F)c(F)c2C1=O", "Production": 2}]}, {"tested_on": "HL-60", "experiment": "Compound was evaluated for the amount of TNF-alpha produced by HL-60 cells in the presence of Okadaic acid (OA) at concentration 30 uM", "format": "functional, Homo sapiens", "units": {"Production": "%"}, "values": [{"compound": "C[C@@]1(N2C(=O)c3ccccc3C2=O)CCC(=O)NC1=O", "Production": 39}, {"compound": "C[C@]1(N2C(=O)c3ccccc3C2=O)CCC(=O)NC1=O", "Production": 75}, {"compound": "O=C1CCC(N2C(=O)c3ccccc3C2=O)C(=O)N1", "note": "(stereo not drawn) [THALIDOMIDE]", "Production": 58}]}]}
